Each structure is given as a SMILES string.

Test [1] deals with T1, CcOMT1.
T1 construct: full-length cDNA from CRC leaf cDNA library, BamHI/XhoI in pET-28a(+), E. coli BL21(DE3), Ni-NTA purified; ORF printed 1080 bp but 366 aa printed (inconsistent); primers encode N-terminus MGSTSSE, C-terminus MEFLKSA
The test can be described thus: HPLC of methylated product, Michaelis-Menten non-linear fit. It counts as biochemical, Citrus reticulata. The following applies: 5 mM SAM, pH 6.0 phosphate, 50 °C, 2 h, 1 mM DTT. The protocol:
HPLC of methylated product, Michaelis-Menten non-linear fit on CcOMT1 | To determine the kinetic parameters of CcOMT1, the Michaelis–Menten constant (Km) was determined

The subject of test [2] is T1, CcOMT1. The test is described as above. The following applies: 5 mM SAM, pH 6.0 phosphate, 50 °C, 2 h, 1 mM DTT. It counts as biochemical, Citrus reticulata. An excerpt: HPLC of methylated product, Michaelis-Menten non-linear fit on CcOMT1 | For kinetic studies of CcOMT1 and its variant CcOMT1-W141Y toward natsudaidain
The source holds these as a separate data set.

As to `COc1ccc(-c2oc3c(OC)c(OC)c(OC)c(OC)c3c(=O)c2O)cc1OC` [compound 1, natsudaidain], the results for the Km with CcOMT1 [1] and in the test on CcOMT1 [2] were 25.4 ± 11.3 µM and 20.8 ± 7.6 µM, respectively.

By Km is commonly meant the substrate concentration at which the rate is half of its maximum.

The values are drawn from article PMC11088696, “An integrated multi-omics approach reveals polymethoxylated flavonoid biosynthesis in Citrus reticulata cv. Chachiensis” (Nature Communications, 2024).
